Test results reported in the NIST ThermoML archive (doi:10.1007/s10765-006-0095-5).
± gives the expanded uncertainty stated by the source.

Key:
[1] = xn = mol fraction of the nth substance listed; conditions: 101 kPa, Liquid
[2] = refractive index (Na D-line) (dimensionless); xn = mol fraction of the nth substance listed; conditions: 101 kPa, Liquid

CCCCN(CCCC)CCCC [tributylamine] + c1ccccc1
Conditions	mass density, [1] [kg/m3]	refractive index, [2]
278.15 K, x2 = 0.0702	790.1 ± 2.5	1.4425 ± 0.0019
278.15 K, x2 = 0.1162	791.1 ± 2.5	1.4495 ± 0.0019
278.15 K, x2 = 0.1687	792.5 ± 2.5	1.4566 ± 0.0019
278.15 K, x2 = 0.2383	794.9 ± 2.5	1.4636 ± 0.0019
278.15 K, x2 = 0.3091	797.7 ± 2.5	1.4707 ± 0.0019
278.15 K, x2 = 0.4032	802.2 ± 2.5	1.4779 ± 0.0019
278.15 K, x2 = 0.5043	808.5 ± 2.5	1.485 ± 0.0019
278.15 K, x2 = 0.6492	821.3 ± 2.6	1.4922 ± 0.0019
278.15 K, x2 = 0.8251	846.8 ± 2.7	1.4994 ± 0.0019
283.15 K, x2 = 0.0702	786.7 ± 2.3	1.4414 ± 0.0019
283.15 K, x2 = 0.1162	787.8 ± 2.3	1.4485 ± 0.0019
283.15 K, x2 = 0.1687	789.3 ± 2.3	1.4557 ± 0.0019
283.15 K, x2 = 0.2383	791.8 ± 2.3	1.4628 ± 0.0019
283.15 K, x2 = 0.3091	794.6 ± 2.3	1.47 ± 0.0019
283.15 K, x2 = 0.4032	799.2 ± 2.4	1.4771 ± 0.0019
283.15 K, x2 = 0.5043	805.6 ± 2.4	1.4842 ± 0.0019
283.15 K, x2 = 0.6492	818.5 ± 2.4	1.4914 ± 0.0019
283.15 K, x2 = 0.8251	844.1 ± 2.5	1.4985 ± 0.0019
288.15 K, x2 = 0.0702	783.2 ± 2.2	1.4406 ± 0.0019
288.15 K, x2 = 0.1162	784.4 ± 2.2	1.448 ± 0.0019
288.15 K, x2 = 0.1687	786 ± 2.2	1.4551 ± 0.0019
288.15 K, x2 = 0.2383	788.5 ± 2.2	1.4621 ± 0.0019
288.15 K, x2 = 0.3091	791.3 ± 2.2	1.4692 ± 0.0019
288.15 K, x2 = 0.4032	795.9 ± 2.2	1.4763 ± 0.0019
288.15 K, x2 = 0.5043	802.3 ± 2.2	1.4834 ± 0.0019
288.15 K, x2 = 0.6492	815.2 ± 2.3	1.4905 ± 0.0019
288.15 K, x2 = 0.8251	840.8 ± 2.4	1.4976 ± 0.0019
293.15 K, x2 = 0.0702	779.9 ± 2	1.4394 ± 0.0019
293.15 K, x2 = 0.1162	781.1 ± 2	1.4466 ± 0.0019
293.15 K, x2 = 0.1687	782.7 ± 2	1.4538 ± 0.0019
293.15 K, x2 = 0.2383	785.3 ± 2	1.4609 ± 0.0019
293.15 K, x2 = 0.3091	788.1 ± 2	1.4681 ± 0.0019
293.15 K, x2 = 0.4032	792.7 ± 2.1	1.4752 ± 0.0019
293.15 K, x2 = 0.5043	799 ± 2.1	1.4824 ± 0.0019
293.15 K, x2 = 0.6492	811.8 ± 2.1	1.4896 ± 0.0019
293.15 K, x2 = 0.8251	837.1 ± 2.2	1.4967 ± 0.0019
298.15 K, x2 = 0	774.3 ± 2.1	–
298.15 K, x2 = 0.0702	775.6 ± 2.1	1.4385 ± 0.0019
298.15 K, x2 = 0.1162	776.9 ± 2.1	1.4456 ± 0.0019
298.15 K, x2 = 0.1687	778.5 ± 2.1	1.4527 ± 0.0019
298.15 K, x2 = 0.2383	781 ± 2.2	1.4602 ± 0.0019
298.15 K, x2 = 0.3091	783.8 ± 2.2	1.4671 ± 0.0019
298.15 K, x2 = 0.4032	788.3 ± 2.2	1.4742 ± 0.0019
298.15 K, x2 = 0.5043	794.5 ± 2.2	1.4816 ± 0.0019
298.15 K, x2 = 0.6492	807 ± 2.3	1.4881 ± 0.0019
298.15 K, x2 = 0.8251	831.6 ± 2.3	1.4951 ± 0.0019
303.15 K, x2 = 0	770.8 ± 2.3	–
303.15 K, x2 = 0.0702	772.5 ± 2.3	1.4383 ± 0.0019
303.15 K, x2 = 0.1162	773.8 ± 2.3	1.4454 ± 0.0019
303.15 K, x2 = 0.1687	775.4 ± 2.3	1.4524 ± 0.0019
303.15 K, x2 = 0.2383	777.9 ± 2.3	1.46 ± 0.0019
303.15 K, x2 = 0.3091	780.8 ± 2.3	1.4667 ± 0.0019
303.15 K, x2 = 0.4032	785.4 ± 2.3	1.474 ± 0.0019
303.15 K, x2 = 0.5043	791.6 ± 2.3	1.4812 ± 0.0019
303.15 K, x2 = 0.6492	804.3 ± 2.4	1.4876 ± 0.0019
303.15 K, x2 = 0.8251	829 ± 2.5	1.4946 ± 0.0019
308.15 K, x2 = 0	767.2 ± 2.4	–
308.15 K, x2 = 0.0702	769.1 ± 2.4	1.4374 ± 0.0019
308.15 K, x2 = 0.1162	770.4 ± 2.4	1.4443 ± 0.0019
308.15 K, x2 = 0.1687	771.9 ± 2.4	1.4514 ± 0.0019
308.15 K, x2 = 0.2383	774.4 ± 2.4	1.4589 ± 0.0019
308.15 K, x2 = 0.3091	777.3 ± 2.4	1.4658 ± 0.0019
308.15 K, x2 = 0.4032	781.9 ± 2.4	1.4733 ± 0.0019
308.15 K, x2 = 0.5043	788.1 ± 2.5	1.4803 ± 0.0019
308.15 K, x2 = 0.6492	800.6 ± 2.5	1.4868 ± 0.0019
308.15 K, x2 = 0.8251	824.9 ± 2.6	1.4936 ± 0.0019
313.15 K, x2 = 0	763.6 ± 2.5	–
313.15 K, x2 = 0.0702	765.5 ± 2.5	1.4366 ± 0.0019
313.15 K, x2 = 0.1162	766.8 ± 2.5	1.4438 ± 0.0019
313.15 K, x2 = 0.1687	768.4 ± 2.5	1.4508 ± 0.0019
313.15 K, x2 = 0.2383	770.9 ± 2.5	1.4581 ± 0.0019
313.15 K, x2 = 0.3091	773.8 ± 2.5	1.465 ± 0.0019
313.15 K, x2 = 0.4032	778.4 ± 2.6	1.4726 ± 0.0019
313.15 K, x2 = 0.5043	784.5 ± 2.6	1.4795 ± 0.0019
313.15 K, x2 = 0.6492	797 ± 2.6	1.486 ± 0.0019
313.15 K, x2 = 0.8251	821.1 ± 2.7	1.4928 ± 0.0019
318.15 K, x2 = 0	759.8 ± 2.6	–
318.15 K, x2 = 0.0702	761.8 ± 2.6	1.4358 ± 0.0019
318.15 K, x2 = 0.1162	763.1 ± 2.6	1.4431 ± 0.0019
318.15 K, x2 = 0.1687	764.8 ± 2.6	1.45 ± 0.0019
318.15 K, x2 = 0.2383	767.2 ± 2.7	1.4575 ± 0.0019
318.15 K, x2 = 0.3091	770.1 ± 2.7	1.4643 ± 0.0019
318.15 K, x2 = 0.4032	774.7 ± 2.7	1.4718 ± 0.0019
318.15 K, x2 = 0.5043	780.8 ± 2.7	1.4788 ± 0.0019
318.15 K, x2 = 0.6492	793.3 ± 2.8	1.4853 ± 0.0019
318.15 K, x2 = 0.8251	817.2 ± 2.8	1.492 ± 0.0019
